The results in this text go back to ChEMBL document CHEMBL3797197, “Design and synthesis of triazole-based peptidomimetics of a PSD-95 PDZ domain inhibitor” (Medchemcomm, 2016).

Molecules are shown by their SMILES. Active and inactive are the calls of the source. The calls are words filed in the database; no cut-off is given here. Residues, ends and D or L forms follow the SMILES beside them.

The target in assay [1] is T1, Disks large homolog 4 (Homo sapiens, UniProt P78352). The assay can be described thus: Displacement of Cy5-GluN2B from N-terminal His-tagged full length human PSD-95alpha PDZ2 domain (155 to 249 residues) without exon 4b expressed in Escherichia coli BL21(DE3)pLysS by fluorescence polarization assay. Background: In fluorescence polarisation assays a small probe gives low polarisation when free and higher when bound to something large.
Target sequence in this assay (P78352 whole entry, the tested form may be a part): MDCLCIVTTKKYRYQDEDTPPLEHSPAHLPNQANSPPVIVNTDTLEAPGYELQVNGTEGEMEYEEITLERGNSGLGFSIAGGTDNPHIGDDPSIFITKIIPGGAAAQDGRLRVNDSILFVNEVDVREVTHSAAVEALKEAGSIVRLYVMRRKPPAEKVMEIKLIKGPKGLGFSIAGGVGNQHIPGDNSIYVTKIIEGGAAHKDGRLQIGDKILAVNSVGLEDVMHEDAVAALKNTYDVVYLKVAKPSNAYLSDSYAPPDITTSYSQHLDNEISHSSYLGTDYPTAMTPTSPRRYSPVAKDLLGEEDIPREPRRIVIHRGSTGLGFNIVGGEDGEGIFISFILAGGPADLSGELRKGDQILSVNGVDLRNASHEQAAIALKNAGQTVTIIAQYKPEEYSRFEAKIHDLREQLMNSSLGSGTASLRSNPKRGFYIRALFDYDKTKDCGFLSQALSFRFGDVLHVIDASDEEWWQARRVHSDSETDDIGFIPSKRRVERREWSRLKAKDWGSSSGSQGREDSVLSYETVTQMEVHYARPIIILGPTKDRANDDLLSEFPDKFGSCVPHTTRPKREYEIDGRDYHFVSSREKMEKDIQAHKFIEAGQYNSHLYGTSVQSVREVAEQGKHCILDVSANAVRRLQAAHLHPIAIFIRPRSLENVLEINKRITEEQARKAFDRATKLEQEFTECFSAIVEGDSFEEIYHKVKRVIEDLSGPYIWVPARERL

Assay [2] deals with T1, Disks large homolog 4. The assay can be described thus: Potency index, ratio of indole 1 Ki to compound Ki for N-terminal His-tagged full length human PSD-95alpha PDZ2 domain (155 to 249 residues) without exon 4b expressed in Escherichia coli BL21(DE3)pLysS.
Target sequence in this assay (P78352 whole entry, looked up, the tested form may be a part): as the sequence (P78352 whole entry, the tested form may be a part) above
Assay [3] addresses T1, Disks large homolog 4. Kind of assay: Displacement of Cy5-GluN2B from N-terminal His-tagged human full length PSD-95alpha PDZ1 domain (61 to 151 residues) without exon 4b expressed in Escherichia coli BL21(DE3)pLysS by fluorescence polarization assay.
Target sequence in this assay (P78352 whole entry, the tested form may be a part): as above
The target in assay [4] is T1, Disks large homolog 4. Kind of assay: Displacement of Cy5-CRIPT from N-terminal His-tagged human full length PSD-95alpha PDZ3 domain (309 to 401 residues) without exon 4b expressed in Escherichia coli BL21(DE3)pLysS by fluorescence polarization assay.
Target sequence in this assay (P78352 whole entry, looked up, the tested form may be a part): as the sequence (P78352 whole entry, the tested form may be a part) above
The target in assay [5] is T1, Disks large homolog 4. The assay can be described thus: Ratio of Kd for N-terminal His-tagged full length human PSD-95alpha PDZ2 domain (155 to 249 residues) without exon 4b expressed in Escherichia coli BL21(DE3)pLysS by […] method to Ki for N-terminal His-tagged full length human PSD-95alpha PDZ2 domain (155 to 249 residues) without exon 4b expressed in Escherichia coli BL21(DE3)pLysS by fluorescence polarization assay. (In ITC the heat of successive injections is recorded.)
Target sequence in this assay (P78352 whole entry, looked up, the tested form may be a part): as the sequence (P78352 whole entry, the tested form may be a part) above

The target in assay [6] is T1, Disks large homolog 4. Kind of assay: Binding affinity to N-terminal His-tagged full length human PSD-95alpha PDZ2 domain (155 to 249 residues) without exon 4b expressed in Escherichia coli BL21(DE3)pLysS by […] method.
Target sequence in this assay (P78352 whole entry, the tested form may be a part): as above
Assay [7] has as its target Disks large homolog 4 (Rattus norvegicus, UniProt P31016). Kind of assay: Inhibition of rat PSD-95 PDZ1 domain interaction with mouse 5HT2A receptor after 18 hrs by pull down assay.

Disks large homolog 4 (Rattus norvegicus, UniProt P31016), sequence (P31016 whole entry, the tested form may be a part): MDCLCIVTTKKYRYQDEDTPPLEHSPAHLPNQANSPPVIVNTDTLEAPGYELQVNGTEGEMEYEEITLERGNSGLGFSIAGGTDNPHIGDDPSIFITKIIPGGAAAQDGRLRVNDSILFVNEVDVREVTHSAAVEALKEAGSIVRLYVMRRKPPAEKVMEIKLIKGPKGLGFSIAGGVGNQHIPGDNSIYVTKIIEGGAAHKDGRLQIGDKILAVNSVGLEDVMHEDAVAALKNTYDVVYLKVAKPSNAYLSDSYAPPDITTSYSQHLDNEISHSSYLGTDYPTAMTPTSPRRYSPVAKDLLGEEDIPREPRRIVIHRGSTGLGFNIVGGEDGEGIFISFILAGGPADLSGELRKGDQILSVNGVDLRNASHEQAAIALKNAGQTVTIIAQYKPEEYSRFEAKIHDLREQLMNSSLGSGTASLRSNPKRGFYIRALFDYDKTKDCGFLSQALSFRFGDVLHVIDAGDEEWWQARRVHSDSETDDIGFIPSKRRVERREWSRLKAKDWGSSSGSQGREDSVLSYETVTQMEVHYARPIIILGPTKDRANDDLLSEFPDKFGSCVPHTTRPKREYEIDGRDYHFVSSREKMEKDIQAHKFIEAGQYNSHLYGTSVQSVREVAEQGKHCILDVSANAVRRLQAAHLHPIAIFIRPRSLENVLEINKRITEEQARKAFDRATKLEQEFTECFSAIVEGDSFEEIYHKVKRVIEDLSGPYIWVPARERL

In general, Ki refers to the equilibrium dissociation constant of an inhibitor or competing ligand from its target. A lower Ki goes with a stronger hold on the target. Compound `CC(C)[C@@H](C(=O)O)n1cc([C@H](C)NC(=O)[C@@H](N)[C@@H](C)O)nn1` showed a Ki at Disks large homolog 4 [1] above 500 µM.
The Kd is the free concentration of one partner at which half of the binding sites on the other are occupied at equilibrium, for simple one-to-one binding. As to `CC(C)[C@H](NC(=O)[C@H](C)n1cc([C@@H](N)[C@@H](C)O)nn1)C(=O)O`, on Disks large homolog 4 [2], the Ratio Ki turned out to be 2. Moreover, the Ki is above 500 µM on Disks large homolog 4 [3] and 289 µM at Disks large homolog 4 [1]. Further, the inhibition entry on Disks large homolog 4 [4] was “inactive”. In addition, the Ratio on Disks large homolog 4 [5] is 2. Also, on Disks large homolog 4 [6], the Kd stood at 598 µM.
Compound `CC(C)[C@H](NC(=O)c1cn([C@H](C(=O)O)C(C)C)nn1)C(=O)O` came in with a Ki on Disks large homolog 4 [1] above 500 µM.
On to `CC(C)[C@H](NC(=O)[C@H](C)NC(=O)[C@@H](N)CO)C(=O)O` (H-Ser-Ala-Val-OH), for which the Ki on Disks large homolog 4 [3] worked out at 480 µM; at Disks large homolog 4 [1], 229 µM.
Take `CC(C)[C@H](NC(=O)[C@H](C)NC(=O)[C@@H](N)[C@@H](C)O)C(=O)O` (H-Thr-Ala-Val-OH): the Ki stood at 74 µM at Disks large homolog 4 [3] and 38 µM at Disks large homolog 4 [1]. Also, the Ratio at Disks large homolog 4 [5] stood at 2. Besides, the affinity on Disks large homolog 4 [6], expressed as Kd, was 101 µM.
As usually defined, the IC50 is the concentration at which inhibition is half-maximal. A higher IC50 goes with weaker potency. On to `Cc1c(C(=O)O)n(CCCC(=O)O)c2cc(C(=O)O)c(OCc3ccccc3)cc12`, for which the values for the inhibition constant Ki on Disks large homolog 4 [3] and at Disks large homolog 4 [1] were above 1000 µM and above 500 µM, respectively. On Disks large homolog 4 [4], the inhibition entry was “inactive”. At Disks large homolog 4 [7], the IC50 came out at 190 µM.
As to `Cc1c(C(=O)O)[nH]c2cc(C(=O)O)c(O)cc12`, the Ki at Disks large homolog 4 [3] was above 1000 µM; at Disks large homolog 4 [1], 530 µM. The inhibition result on Disks large homolog 4 [4] is “inactive”.
